≈ marks a conversion by molar mass, not a printed value. Where “and” joins values, the source holds several entries; their conditions need not be identical. Equal entries are not always repeated. Where two headings read alike, the source gives them in different places.
Tests used:
[1] = test system: K. pneumoniae UNT-023 (KPC-2); assay: MIC vs. septicemia model strain; format: cell-based; settings: Klebsiella pneumoniae, read-out: MIC vs. K. pneumoniae UNT-023 (KPC-2)
[2] = test system: AmpC/CMY-expressing Enterobacteriaceae (n = 44); assay: Broth microdilution MIC, ceftibuten/Compound 2 vs IV comparators; format: cell-based
[3] = test system: three strains of E. coli expressing TEM-1+CTX-M-15, CTX-M-15, and KPC-2+SHV-12; assay: MIC against the UTI test strains; format: cell-based
[4] = test system: ESBL-expressing Enterobacteriaceae (n = 33); assay: Broth microdilution MIC, ceftibuten/Compound 2 vs IV comparators; format: cell-based
[5] = test system: E. coli (UNT-204-1, TEM-1 plus CTX-M-15 producing); format: in vivo, C3H/HeJ mice; settings: for Log10 Change in CFU/Sample vs. untreated controls, Day 7, Bladder / Log10 Change in CFU/Sample vs. untreated controls, Day 7, Kidneys / Log10 Change in CFU/Sample vs. untreated controls, Day 7, Urine: SC, BID, 3 days
[6] = test system: ceftibuten-resistant Enterobacteriaceae, All isolates; assay: Checkerboard broth microdilution MIC, BLI concentration impact; format: cell-based; settings: for MIC50: read-out: CTB MIC50; for MIC90: read-out: CTB MIC90
Method: (§1) Minimum inhibitory concentrations (MICs) were determined by broth microdilution method following CLSI guidelines. Tested strains were ceftibuten-resistant Enterobacteriaceae expressing ESBL (n=20), KPC (n=20), OXA-48 (n=20) and/or Class C (n=20) beta-lactamases. For each isolate, one microtiter plate was prepared and formatted as a checkerboard with the BLI (Compound 2 or clavulanic acid) titrated down the plate and ceftibuten titrated across the plate. Each agent was also tested alone. MICs were determined as the well with the lowest concentration of ceftibuten without visible growth at each concentration of BLI.

[7] = test system: ceftibuten-resistant Enterobacteriaceae expressing Class C (n=20); assay: as above; format: cell-based; settings: for MIC50: read-out: CTB MIC50; for MIC90: read-out: CTB MIC90
Method: as §1

[8] = test system: ceftibuten-resistant Enterobacteriaceae expressing OXA-48 (n=20); assay: as above; format: cell-based; settings: for MIC50: read-out: CTB MIC50; for MIC90: read-out: CTB MIC90
Method: as §1

[9] = test system: ceftibuten-resistant Enterobacteriaceae expressing ESBL (n=20); assay: as above; format: cell-based; settings: for MIC50: read-out: CTB MIC50; for MIC90: read-out: CTB MIC90
Method: as §1

[10] = test system: E. coli Si-FDL-GES; assay: microbe, parasite or virus in culture; format: cell-based
[11] = Metabolic stability in intestinal S9; format: in vitro ADME, cynomolgus monkey; settings: cynomolgus, intestinal S9; Monkey; test conc. 3 μM
[12] = Metabolic stability in liver S9; format: in vitro ADME, Sprague-Dawley rat; settings: Sprague-Dawley, liver S9; Rat; test conc. 3 μM
[13] = Single dose plasma pharmacokinetics (fasted and non-fasted); format: in vivo, Cynomolgus monkeys; settings: male, Cynomolgus, cynomolgus monkey, iv, 5 mg/kg
[14] = as above; format: in vivo, Sprague-Dawley rats; settings: Sprague-Dawley, rat, iv, 5 mg/kg
[15] = Metabolic stability in intestinal S9; format: in vitro ADME, CD-1 mouse; settings: CD-1, intestinal S9; Mouse; test conc. 3 μM
[16] = Metabolic stability in intestinal S9; format: in vitro ADME, beagle dog; settings: beagle, intestinal S9; Dog; test conc. 3 μM
[17] = molecular target: T1, IMP-1 (Serratia marcescens, UniProt P52699); assay: Beta-lactamase enzyme inhibition (IC50); format: biochemical
T1 construct: expressed as native untagged proteins; made in house; host or cells: E. coli BL21(DE3)

[18] = molecular target: T2, CMY-2 (Klebsiella pneumoniae, UniProt Q48434); assay: Beta-lactamase enzyme inhibition (IC50); format: biochemical
T2 construct: expressed as native untagged proteins; made in house; host or cells: E. coli BL21(DE3)

[19] = Metabolic stability in liver S9; format: in vitro ADME, beagle dog; settings: beagle, liver S9; Dog; test conc. 3 μM
[20] = molecular target: T3, OXA-1 (Escherichia coli, UniProt P13661); assay: Beta-lactamase enzyme inhibition (IC50); format: biochemical
T3 construct: expressed as native untagged proteins; made in house; host or cells: E. coli BL21(DE3)

[21] = molecular target: T4, KPC-2 (Klebsiella pneumoniae, UniProt Q9F663); assay: Beta-lactamase enzyme inhibition (IC50); format: biochemical
T4 construct: expressed as native untagged proteins; made in house; host or cells: E. coli BL21(DE3)

[22] = Metabolic stability in plasma; format: in vitro ADME, beagle dog; settings: beagle, plasma; Dog; test conc. 3 μM
[23] = Metabolic stability in plasma; format: in vitro ADME, CD-1 mouse; settings: CD-1, plasma; Mouse; test conc. 3 μM

Nc1nc(/C(=C/CC(=O)O)C(=O)N[C@@H]2C(=O)N3C(C(=O)O)=CCS[C@H]23)cs1 [Ceftibuten, ceftibuten, reference compound]
MIC [1]: > 128 µg/mL
Number of strains at MIC value 0.5 mg/L ([2]; AmpC/CMY-expressing (n = 44)): 0
Number of strains at MIC value 1 mg/L ([2]; AmpC/CMY-expressing (n = 44)): 1
Number of strains at MIC value 2 mg/L ([2]; AmpC/CMY-expressing (n = 44)): 5
Number of strains at MIC value 4 mg/L ([2]; AmpC/CMY-expressing (n = 44)): 3
Number of strains at MIC value 8 mg/L ([2]; AmpC/CMY-expressing (n = 44)): 7
Number of strains at MIC value 16 mg/L ([2]; AmpC/CMY-expressing (n = 44)): 7
Number of strains at MIC value […] ([2]; AmpC/CMY-expressing (n = 44)): 0
Number of strains at MIC value ≤0.06 mg/L ([2]; AmpC/CMY-expressing (n = 44)): 1
Number of strains at MIC value ≥32 mg/L ([2]; AmpC/CMY-expressing (n = 44)): 20
MIC50 ([2]; iv): ≥ 32 µg/mL
MIC90 ([2]; iv): ≥ 32 µg/mL
MIC ([3]; Escherichia coli, alone, read-out: Ceftibuten MICs): 8 to 64 µg/mL (≈ 19.5 to 156 µM)
Number of strains at MIC value 0.5 mg/L ([4]; ESBL-expressing (n = 33)): 2
Number of strains at MIC value 1 mg/L ([4]; ESBL-expressing (n = 33)): 4
Number of strains at MIC value 2 mg/L ([4]; ESBL-expressing (n = 33)): 2
Number of strains at MIC value 4 mg/L ([4]; ESBL-expressing (n = 33)): 8
Number of strains at MIC value 8 mg/L ([4]; ESBL-expressing (n = 33)): 5
Number of strains at MIC value 16 mg/L ([4]; ESBL-expressing (n = 33)): 1
Number of strains at MIC value […] ([4]; ESBL-expressing (n = 33)): 2 and 3
Number of strains at MIC value ≤0.06 mg/L ([4]; ESBL-expressing (n = 33)): 0
Number of strains at MIC value ≥32 mg/L ([4]; ESBL-expressing (n = 33)): 6
MIC50 ([4]; iv): 4 µg/mL (≈ 9.75 µM)
MIC90 ([4]; iv): ≥ 32 µg/mL
Log10 Change in CFU/Sample vs. untreated controls, Day 7, Bladder ([5]; 3 mg/kg): −0.03 Log10 CFU/Sample
Log10 Change in CFU/Sample vs. untreated controls, Day 7, Kidneys ([5]; 3 mg/kg): −0.44 Log10 CFU/Sample
Log10 Change in CFU/Sample vs. untreated controls, Day 7, Urine ([5]; 3 mg/kg): −1.24 Log10 CFU/Sample
Log10 Change in CFU/Sample vs. untreated controls, Day 7, Bladder ([5]; 10 mg/kg): −1.51 Log10 CFU/Sample
Log10 Change in CFU/Sample vs. untreated controls, Day 7, Kidneys ([5]; 10 mg/kg): −1.55 Log10 CFU/Sample
Log10 Change in CFU/Sample vs. untreated controls, Day 7, Urine ([5]; 10 mg/kg): −0.59 Log10 CFU/Sample
Log10 Change in CFU/Sample vs. untreated controls, Day 7, Bladder ([5]; 30 mg/kg): −2.08 Log10 CFU/Sample
Log10 Change in CFU/Sample vs. untreated controls, Day 7, Kidneys ([5]; 30 mg/kg): −1.57 Log10 CFU/Sample
Log10 Change in CFU/Sample vs. untreated controls, Day 7, Urine ([5]; 30 mg/kg): −2.28 Log10 CFU/Sample
reduction of bacterial load in the kidneys (average) ([5]; 100 mg/kg, SC twice daily for 3 days): 2.11 log10 CFU
Log10 Change in CFU/Sample vs. untreated controls, Day 7, Bladder ([5]; 100 mg/kg): −2.26 Log10 CFU/Sample
Log10 Change in CFU/Sample vs. untreated controls, Day 7, Kidneys ([5]; 100 mg/kg): −2.11 Log10 CFU/Sample
Log10 Change in CFU/Sample vs. untreated controls, Day 7, Urine ([5]; 100 mg/kg): −2.54 Log10 CFU/Sample
Log10 Change in CFU/Sample vs. untreated controls, Day 7, Bladder ([5]; 300 mg/kg): −1.83 Log10 CFU/Sample
Log10 Change in CFU/Sample vs. untreated controls, Day 7, Kidneys ([5]; 300 mg/kg): −2.14 Log10 CFU/Sample
Log10 Change in CFU/Sample vs. untreated controls, Day 7, Urine ([5]; 300 mg/kg): −3.37 Log10 CFU/Sample

O=C(O)[C@H]1/C(=C/CO)O[C@@H]2CC(=O)N21 [Clavulanic acid, clavulanic acid, reference compound]
MIC50 [6]: 4 µg/mL
MIC90 [6]: 32 µg/mL
MIC50 [7]: 2 µg/mL
MIC90 [7]: > 32 µg/mL
MIC50 [8]: 8 µg/mL
MIC90 [8]: > 32 µg/mL
MIC50 [9]: 0.5 µg/mL
MIC90 [9]: 2 µg/mL
MIC of cefalexin (LEX) ([10]; with inhibitor at 4 μg/mL): 1 µg/mL
MIC of cefdinir (CDR) ([10]; with inhibitor at 4 μg/mL): 1 µg/mL
MIC of cefixime (CFM) ([10]; with inhibitor at 4 μg/mL): 0.5 µg/mL
MIC of ceftibuten (CTB) ([10]; with inhibitor at 4 μg/mL): 0.25 µg/mL

CCC(=O)N[C@H]1Cc2cccc(C(=O)O)c2OB1O [Compound 2, (R)-2-hydroxy-3-propionamido-3,4-dihydro-2H-benzo[e][1,2]oxaborinine-8-carboxylic acid]
MIC50 [6]: 0.25 µg/mL
MIC90 [6]: 1 µg/mL
MIC50 [7]: 0.25 µg/mL
MIC90 [7]: 1 µg/mL
MIC50 [8]: 0.125 µg/mL
MIC90 [8]: 0.5 µg/mL
MIC50 [9]: 0.25 µg/mL
MIC90 [9]: 0.5 µg/mL
half-life at 3 μM [11]: > 2 h
half-life at 3 μM [12]: > 2 h
AUC(0-inf) [13]: 38400 ng·h/mL
Cmax [13]: 38600 ng/mL
AUC(0-inf) [14]: 3710 ng·h/mL
Cmax [14]: 7100 ng/mL
half-life at 3 μM [15]: > 2 h
half-life at 3 μM [16]: > 2 h
IC50 [17]: > 100000 nM
MIC of cefalexin (LEX) ([10]; with inhibitor at 1 μg/mL): 0.5 µg/mL
MIC of cefdinir (CDR) ([10]; with inhibitor at 1 μg/mL): 0.5 µg/mL
MIC of cefixime (CFM) ([10]; with inhibitor at 1 μg/mL): 0.25 µg/mL
MIC of ceftibuten (CTB) ([10]; with inhibitor at 1 μg/mL): 0.125 µg/mL
MIC of cefalexin (LEX) ([10]; with inhibitor at 2 μg/mL): 0.5 µg/mL
MIC of cefdinir (CDR) ([10]; with inhibitor at 2 μg/mL): 0.5 µg/mL
MIC of cefixime (CFM) ([10]; with inhibitor at 2 μg/mL): 0.125 µg/mL
MIC of ceftibuten (CTB) ([10]; with inhibitor at 2 μg/mL): 0.125 µg/mL
MIC of cefalexin (LEX) ([10]; with inhibitor at 4 μg/mL): 0.5 µg/mL
MIC of cefdinir (CDR) ([10]; with inhibitor at 4 μg/mL): 0.5 µg/mL
MIC of cefixime (CFM) ([10]; with inhibitor at 4 μg/mL): 0.125 µg/mL
MIC of ceftibuten (CTB) ([10]; with inhibitor at 4 μg/mL): 0.125 µg/mL
ceftibuten MICs ([3]; with Compound 2 at a fixed concentration of 4 μg/mL): <0.06 to 0.12 µg/mL
IC50 [18]: 14 nM
half-life at 3 μM [19]: > 2 h
IC50 [20]: 66 nM
IC50 [21]: 80 nM
half-life at 3 μM [22]: > 2 h
half-life at 3 μM [23]: > 2 h

Reference: patent publication US12544395B2, “Combination compositions comprising a beta-lactamase inhibitor and uses thereof” (priority 2018, dated 2026)
